Test results reported in patent US20230097253A1, “NOVEL QUINAZOLINE COMPOUND AS THERAPEUTIC AGENT FOR METABOLIC DISORDERS” (BIOWAY., INC, priority 2020, published 2023).

Columns and labels:
[1] = system: steatosis-induced Huh-7 cells; test: Expression of lipogenesis-related proteins (western blot); format: cell-based; conditions: Huh7 cells, 250 μM PA; 0.5, 2.5, 10 μM, 24 hours; FIG. 9-A
Procedure: To induce steatosis in Huh-7 cells in each well except for control cells, the Huh-7 cells were treated with PA bound to 2% BSA at a concentration of 250 μM except for the control, and the control cells were pretreated with 2% BSA without FA.
The cells in each well were treated with the compound of Chemical Formula 2 0.5 μM, 2.5 μM, and 10 μM and then cultured for 24 hours. The control cells and PA treated cells were treated with DMSO. All media were aspirated and the cells were gently washed 3 times with cold PBS.
A cold lysis buffer containing 150 mM sodium chloride (NaCl), 5 mM ethylenediaminetetraacetic acid (EDTA), pH 8.0, […] 4-(2-hydroxyethyl)-1-piperazineethanesulfonic acid (HEPES), 1% nonylphenoxypolyethoxylethanol (NP-40), 2 μg/mL aprotinin, 1 μM pepstatin A, 10 μM leupeptin, 1 mM sodium fluoride (NaF), 0.2 mM sodium orthovanadate ([…]), and 1 μM phenylmethylsulfonyl fluoride (PMSF) was added thereto.
A whole cell lysate was collected and gently pipetted at least 10 times to ensure complete lysis. The sample was incubated on ice for 20 minutes and centrifuged 4° C. at 13,000 rpm, for 20 minutes. […]
Images were acquired using an ImageQuant LAS 3000 (Fujifilm, Tokyo, Japan). Data were analyzed.

[2] = Pharmacokinetic parameters after oral administration; format: in vivo, Sprague Dwaley (SD) rats; conditions: male SD rats, 10 mg/kg, FIG. 16
Procedure: An experiment was performed to measure the pharmacokinetic parameters of BW-3290 using three male Sprague Dwaley (SD) rats. As for BW-3290, a formulation with a composition of 95% water containing 5% DMSO and 20% HPbCD was used, and was orally administered at a concentration of 10 mg/kg. Blood samples were collected from the jugular vein at time points of 0.25, 0.5, 1, 4, 8, 10, 12, and 24 hours. The blood samples collected were centrifuged for 15 minutes at 4° C. at 2,500×g to secure plasma. Bioanalysis for the measurement of pharmacokinetic parameters was analyzed by LC-MS/MS.

DIAMOND™ mouse model [3] = test: In-vivo activity in DIAMOND mouse model: body weight, liver weight, liver function enzymes; conditions: DIAMOND mice, 16 mg/kg oral once daily for 8 weeks
Procedure: (§1) The DIAMOND™ mouse model, an animal model prepared using a Western diet and sugar water, was used. The DIAMOND™ mice were induced with WDSW for 14 weeks, and 12 mice were used for the control group and 12 mice for the BW-3290 treatment group, and BW-3290 was orally administered at 16 mg/kg once daily for 8 weeks. An autopsy was performed at week 22, and blood collection and tissue storage were performed for the individuals in each group.

DIAMOND™ mouse model [4] = test: Efficacy in improving liver fibrosis (Sirius Red and Trichrome staining of liver tissue); format: in vivo; conditions: DIAMOND mice liver tissue, 16 mg/kg oral once daily for 8 weeks, compared to control group (VC)
Procedure: as §1
Staining was performed by Sirius Red staining and Trichrome (Masson's trichrome) staining, which are the staining methods that can confirm fibrosis, was stained using the liver tissue obtained after autopsy.

[5] = week 22, compared to control group (VC), FIG. 17
[6] = vs control group (VC), statistical significance

CC(C)C(Nc1ncnc2nc[nH]c12)c1nc2cccc(Cl)c2c(=O)n1-c1ccccc1 (stereo not shown) [BW-3290, 2-(1-((7H-purin-6-yl)amino)-2-methylpropyl)-5-chloro-3-phenylquinazolin-4(3H)-one]
level of FAS protein [1]: decreased in a concentration-dependent manner
level of SREBP1 protein [1]: decreased in a concentration-dependent manner
AUClast [2]: excellent
Cmax [2]: excellent
concentration after 12 hours after absorption ([2]; plasma): maintained to some extent
liver/body weight ratio (DIAMOND™ mouse model [3]; week 22): improve
body weight (DIAMOND™ mouse model [3]; [5]): decreased
liver weight (DIAMOND™ mouse model [3]; [5]): decreased
alkaline phosphatase (ALP) level (DIAMOND™ mouse model [3]; vs control group (VC)): decreased
alanine aminotransferase (ALT) level (DIAMOND™ mouse model [3]; [6]): decreased
aspartate aminotransferase (AST) level (DIAMOND™ mouse model [3]; [6]): decreased
fiberized portions stained in blue by Trichrome staining (DIAMOND™ mouse model [4]): reduced
collagen and amyloid tissues stained in red by Sirius Red staining (DIAMOND™ mouse model [4]; FIGS. 19 and 22): decreased
